From patent US20020055512A1, “Compositions for delivery of a cortisol antagonist” (CORTENDO AB., priority 2000, published 2002)

Assay: Solubility of ketoconazole in lipid excipients (observation of undissolved crystals)
Type: physicochemical
Details: ambient room temperature; estimated
Method: The solubility of ketoconazole in glycerol monooleate was assessed at 37° C. according to the following method. 2 g samples of ketoconazole (USP) and glycerol monooleate were mixed together in various proportions and put on a magnetic stirrer at 37° C. Samples containing 1, 3 and 5 wt. % of ketoconazole were investigated for the observation of ketoconazole crystals. Samples containing 1 wt. % ketoconazole were completely dissolved after less than 18 h but more than 2 h. Samples containing 3 wt % ketoconazole were almost homogeneous after 48 h, after which no further change of the sample took place. […] Thus, at 37° C. ketoconazole has a limited solubility in glycerol monooleate. It is estimated to be between 1 and 3 wt. %.
The solubility of ketoconazole in oleic acid was assessed at ambient room temperature using the method described in Example 1. Samples containing 5, 10, 15 and 33 wt. % of ketoconazole were mixed with oleic acid and the appearance of undissolved ketoconazole was investigated after 24 and 48 h. After 24 hours samples containing 5 wt. % ketoconazole were completely dissolved and after 48 h samples containing 10 wt. % of ketoconazole were completely homogenous and all ketoconazole was dissolved. Thus the solubility of ketoconazole in oleic acid is estimated to be about 10 wt. %.

solubility of ketoconazole in oleic acid: about 10 wt. %
SMILES: CC(=O)N1CCN(c2ccc(OCC3COC(Cn4ccnc4)(c4ccc(Cl)cc4Cl)O3)cc2)CC1 (stereo not shown) [ketoconazole, Ketoconazole]
